US11129870B2, “Compositions and methods for uncoupling TrkB receptor from PLC gamma 1 for the treatment of epilepsy and anxiety-like disorder” (DUKE UNIVERSITY, priority 2010, dated 2021)
Where no end group is shown, it is not given here. [ ]: non-standard residue; d: D form. pY = N[C@@H](Cc1ccc(OP(=O)(O)O)cc1)C(=O)O

Legend:
Akt = experiment: BDNF-mediated increase of p-Akt in cultured cortical neurons (western blot); format: cell-based, rat; details: 10 μM, 10-120 min pretreatment
PLCγ1 = experiment: p-PLCγ1 in brain of naive mice after intravenous peptide (western blot); format: in vivo, mouse
Procedure: An important issue with respect to usefulness of Tat-pTRKBY816 is whether, following peripheral administration, the peptide can inhibit PLCγ1 activation in the brain in vivo. To test this idea, adult C57/B6 mice underwent tail vein injection of vehicle (normal saline [NS]) or Tat-scrambled-pTrkY816 or Tat-pTrkBY816 (10 mg/kg, 2 mice per group). Animals were sacrificed 3 hours post administration, the hippocampus dissected and homogenate prepared for western blotting. […] These findings support the assertion that the peptide passes through the blood brain barrier and inhibits PLCγ1 activation in vivo.
Animals were anesthetized with pentobarbital (200 mg/kg i.p.) and decapitated, and the head was quickly immersed in liquid nitrogen for 4 s to rapidly cool the brain. The hippocampi were rapidly dissected on ice and homogenized in RIPA buffer, incubated on ice for 15 min, and centrifuged at 200,000×g for 10 min at 4° C. The supernatant was collected and stored at −80° C. until further analysis. […] The immunoreactivity of individual bands on western blots was measured by ImageJ software (National Institutes of Health) and normalized to PLCγ1, Akt or ERK contents. Equivalent protein loading among samples was monitored by β-actin (1:10000; Sigma) levels. […]

TrkB-PLCγ1 binding = target: T1, TrkB-PLCγ1 binding (Mus musculus, UniProt Q62077); experiment: Co-immunoprecipitation of TrkB and PLCγ1 from hippocampal homogenates after i.v. peptide; format: in vivo; details: 10 mg/kg i.v., 3 hr, hippocampus, compared to Scr
T1 construct: The hippocampi were rapidly dissected on ice and homogenized in RIPA buffer; from tissue; host or cells: hippocampus of naïve C57BL/6 mice
T1 sequence (Q62077 1-1302): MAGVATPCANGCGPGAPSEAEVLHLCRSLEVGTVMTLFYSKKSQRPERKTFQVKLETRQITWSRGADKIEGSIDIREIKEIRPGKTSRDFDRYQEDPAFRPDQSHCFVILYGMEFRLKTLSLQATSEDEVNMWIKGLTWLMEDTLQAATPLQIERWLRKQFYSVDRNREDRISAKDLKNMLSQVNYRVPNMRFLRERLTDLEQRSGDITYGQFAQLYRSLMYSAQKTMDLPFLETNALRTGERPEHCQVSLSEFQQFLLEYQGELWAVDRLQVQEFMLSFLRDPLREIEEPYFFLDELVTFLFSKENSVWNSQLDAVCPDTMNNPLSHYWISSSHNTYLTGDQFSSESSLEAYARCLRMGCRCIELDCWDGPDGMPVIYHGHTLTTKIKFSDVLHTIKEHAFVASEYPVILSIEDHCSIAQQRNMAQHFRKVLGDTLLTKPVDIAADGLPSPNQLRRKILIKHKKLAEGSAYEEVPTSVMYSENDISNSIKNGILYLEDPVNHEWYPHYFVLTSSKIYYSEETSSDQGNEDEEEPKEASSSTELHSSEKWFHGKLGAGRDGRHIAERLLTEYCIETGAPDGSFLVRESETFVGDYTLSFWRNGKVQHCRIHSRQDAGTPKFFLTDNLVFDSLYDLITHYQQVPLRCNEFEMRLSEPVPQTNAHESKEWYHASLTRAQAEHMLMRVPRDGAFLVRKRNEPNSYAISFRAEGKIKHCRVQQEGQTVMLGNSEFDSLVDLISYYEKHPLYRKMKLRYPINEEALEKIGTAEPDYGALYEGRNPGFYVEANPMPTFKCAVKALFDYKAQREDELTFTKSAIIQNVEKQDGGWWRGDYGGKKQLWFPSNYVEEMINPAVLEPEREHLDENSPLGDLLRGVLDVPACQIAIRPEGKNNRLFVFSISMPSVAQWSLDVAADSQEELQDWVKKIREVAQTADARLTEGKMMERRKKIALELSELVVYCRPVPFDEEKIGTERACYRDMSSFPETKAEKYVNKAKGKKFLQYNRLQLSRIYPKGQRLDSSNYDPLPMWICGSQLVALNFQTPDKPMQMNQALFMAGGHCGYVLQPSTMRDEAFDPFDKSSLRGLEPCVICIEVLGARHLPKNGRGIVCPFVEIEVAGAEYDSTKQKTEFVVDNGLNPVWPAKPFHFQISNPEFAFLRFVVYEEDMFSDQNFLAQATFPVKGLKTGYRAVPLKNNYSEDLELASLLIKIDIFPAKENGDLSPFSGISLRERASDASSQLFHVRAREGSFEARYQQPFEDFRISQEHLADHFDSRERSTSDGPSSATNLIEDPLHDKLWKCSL
Procedure: Animals were anesthetized with pentobarbital (200 mg/kg i.p.) and decapitated, and the head was quickly immersed in liquid nitrogen for 4 s to rapidly cool the brain. The hippocampi were rapidly dissected on ice and homogenized in RIPA buffer, incubated on ice for 15 min, and centrifuged at 200,000×g for 10 min at 4° C. The supernatant was collected and stored at −80° C. until further analysis. TrkB was immunoprecipitated using TrkB antibody (1:1000, Millipore) and the lysates were incubated with 100 μL of protein A-Sepharose beads (Roche) overnight in 4° C. The beads/immune complexes were pelleted in a microcentrifuge and then resuspended in RIPA buffer and this procedure was repeated two additional times before adding 2×SDS PAGE sample buffer and boiled. After SDS PAGE, the gels were probed with TrkB and PLCγ1 antibody (1:1000, Cell signaling). Western blotting was conducted as previously described (He et al., 2010). Cell lysate and hippocampal homogenate were probed with p-PLCγ1 (pY783), PLCγ1, p-Akt (pS473), Akt, p-ERK (p44/p42) and ERK (1:1000, Cell signaling). The immunoreactivity of individual bands on western blots was measured by ImageJ software (National Institutes of Health) and normalized to PLCγ1, Akt or ERK contents. Equivalent protein loading among samples was monitored by β-actin (1:10000; Sigma) levels. […]

ERK = experiment: BDNF-mediated increase of p-ERK in cultured cortical neurons (western blot); format: cell-based, rat; details: 10 μM, 10-120 min pretreatment

Substance	BDNF-mediated increase of the p-Akt/Akt ratio (quantified, FIG. 11) (Akt)	reduction of p-PLCγ1 (pY783) immunoreactivity (PLCγ1; 10 mg/kg i.v., 3 hr, hippocampal lysates, in comparison to Scr) [%]	phospho-PLCγ1 in brain homogenate (PLCγ1; 10 mg/kg tail vein, 3 hours post administration, vs saline or scrambled peptide)	co-immunoprecipitation of TrkB and PLCγ1 (TrkB-PLCγ1 binding)	BDNF-mediated increase of the p-ERK/ERK ratio (quantified, FIG. 12) (ERK)
YGRKKRRQRRR-LQNLAKASPVpYLDI (YGRKKRRQRRRLQNLAKASPV[pY]LDI) [pY816]	Neither the Phospho-Tat-TrkBY816 nor the Scr-phospho-Tat-TrkBY816 peptide inhibited	~50	reduced the phosphor-PLCγ1	inhibited the co-immunoprecipitation of TrkB and PLCγ1	Neither the Phospho-Tat-TrkBY816 nor the Scr-phospho-Tat-TrkBY816 peptide inhibited
YGRKKRRQRRRLVApYQLKIAPNDLS (YGRKKRRQRRRLVA[pY]QLKIAPNDLS) [Scr, reference compound]	Neither the Phospho-Tat-TrkBY816 nor the Scr-phospho-Tat-TrkBY816 peptide inhibited	–	–	–	Neither the Phospho-Tat-TrkBY816 nor the Scr-phospho-Tat-TrkBY816 peptide inhibited
